Reference: publication PMC6297231 (Nature Communications, 2018)

How the values were obtained:
Assay in all cases: cells
5637 = conditions: 6 h, read-out: AZD5991 6h EC50
Outline: (§1)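 Cells were seeded at 3000 cells/well in their respective growth media and treated with compound. Caspase-3/7 activation was read by Caspase-Glo 3/7 luminescence and viability by CellTiter-Glo; EC50 and GI50 came from dose–response curves. Caspase activation is expressed relative to a cell-kill control set at 100%.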

647V = conditions: Homo sapiens, 6 h, read-out: AZD5991 6h EC50
Outline: as §1

A2058 = conditions: Homo sapiens, A2058, 6 h, read-out: AZD5991 6h EC50
Outline: as §1

AMO1 = conditions: Homo sapiens, AMO1, 6 h, read-out: AZD5991 6h EC50
Outline: as §1

BT20 = conditions: Homo sapiens, BT-20, 6 h, read-out: AZD5991 6h EC50
Outline: as §1

Bjab = conditions: Homo sapiens, 6 h, read-out: AZD5991 6h EC50
Outline: as §1

COLO829 = conditions: Homo sapiens, COLO-829, 6 h, read-out: AZD5991 6h EC50
Outline: as §1

Calu1 = conditions: Homo sapiens, Calu-1, 6 h, read-out: AZD5991 6h EC50
Outline: as §1

DMS114 = conditions: Homo sapiens, DMS-114, 6 h, read-out: AZD5991 6h EC50
Outline: as §1

EOL1 = conditions: Homo sapiens, EOL1, 6 h, read-out: AZD5991 6h EC50
Outline: as §1

H2286 = conditions: Homo sapiens, NCI-H2286, 6 h, read-out: AZD5991 6h EC50
Outline: as §1

H345 = conditions: Homo sapiens, NCI-H345, 6 h, read-out: AZD5991 6h EC50
Outline: as §1

H358 = conditions: Homo sapiens, NCI-H358, 6 h, read-out: AZD5991 6h EC50
Outline: as §1

H460 = conditions: Homo sapiens, NCI-H460, 6 h, read-out: AZD5991 6h EC50
Outline: as §1

H526 = conditions: Homo sapiens, NCI-H526, 6 h, read-out: AZD5991 6h EC50
Outline: as §1

H647 = conditions: Homo sapiens, NCI-H647, 6 h, read-out: AZD5991 6h EC50
Outline: as §1

HCC827 = conditions: Homo sapiens, HCC827, 6 h, read-out: AZD5991 6h EC50
Outline: as §1

HL60 = conditions: Homo sapiens, HL-60, 6 h, read-out: AZD5991 6h EC50
Outline: as §1

JJN3 = conditions: Homo sapiens, JJN-3, 6 h, read-out: AZD5991 6h EC50
Outline: as §1

KG1a = conditions: Homo sapiens, KG-1a, 6 h, read-out: AZD5991 6h EC50
Outline: as §1

KMS11 = conditions: Homo sapiens, KMS-11, 6 h, read-out: AZD5991 6h EC50
Outline: as §1

KMS12PE = conditions: Homo sapiens, KMS-12-PE, 6 h, read-out: AZD5991 6h EC50
Outline: as §1

KMS26 = conditions: KMS-26, 6 h, read-out: AZD5991 6h EC50
Outline: as §1

KMS34 = conditions: KMS-34, 6 h, read-out: AZD5991 6h EC50
Outline: as §1

LP1 = conditions: Homo sapiens, LP-1, 6 h, read-out: AZD5991 6h EC50
Outline: as §1

MDAMB468 = conditions: Homo sapiens, MDA-MB-468, 6 h, read-out: AZD5991 6h EC50
Outline: as §1

MEWO = conditions: Homo sapiens, 6 h, read-out: AZD5991 6h EC50
Outline: as §1

MWCL1 = conditions: 6 h, read-out: AZD5991 6h EC50
Outline: as §1

OCILY10 = conditions: Homo sapiens, OCI-Ly10, 6 h, read-out: AZD5991 6h EC50
Outline: as §1

OCILY7 = conditions: Homo sapiens, OCI-Ly7, 6 h, read-out: AZD5991 6h EC50
Outline: as §1

RPMI8226 = conditions: Homo sapiens, RPMI-8226, 6 h, read-out: AZD5991 6h EC50
Outline: as §1

SKOV3 = conditions: Homo sapiens, SK-OV-3, 6 h, read-out: AZD5991 6h EC50
Outline: as §1

SNU1197 = conditions: 6 h, read-out: AZD5991 6h EC50
Outline: as §1

T47D = conditions: Homo sapiens, 6 h, read-out: AZD5991 6h EC50
Outline: as §1

TMD8 = conditions: Homo sapiens, TMD8, 6 h, read-out: AZD5991 6h EC50
Outline: as §1

ZR751 = conditions: Homo sapiens, ZR-75-1, 6 h, read-out: AZD5991 6h EC50
Outline: as §1

SMILES: Cc1c2c(nn1C)CSCc1cc(n(C)n1)CSc1cc(c3ccccc3c1)OCCCc1c(C(=O)O)n(C)c3c-2c(Cl)ccc13 (atropisomer, axis not shown; (Ra)) [(Ra)-7]
- EC50 5637: 0.107 µM
- EC50 (647V): 26.5 µM
- EC50 (A2058): > 30 µM
- EC50 (AMO1): 0.09 µM
- EC50 (BT20): > 30 µM
- EC50 (Bjab): 0.047 µM
- EC50 (COLO829): > 30 µM
- EC50 (Calu1): > 30 µM
- EC50 (DMS114): 0.29 µM
- EC50 (EOL1): 0.013 µM
- EC50 (H2286): > 30 µM
- EC50 (H345): > 30 µM
- EC50 (H358): > 30 µM
- EC50 (H460): > 30 µM
- EC50 (H526): > 30 µM
- EC50 (H647): > 30 µM
- EC50 (HCC827): > 30 µM
- EC50 (HL60): 0.656 µM
- EC50 (JJN3): 0.223 µM
- EC50 (KG1a): 1.43 µM
- EC50 (KMS11): 1.57 µM
- EC50 (KMS12PE): 0.383 µM
- EC50 (KMS26): 0.144 µM
- EC50 (KMS34): 0.24 µM
- EC50 (LP1): 0.249 µM
- EC50 (MDAMB468): > 30 µM
- EC50 (MEWO): > 30 µM
- EC50 (MWCL1): 27.7 µM
- EC50 (OCILY10): 0.117 µM
- EC50 (OCILY7): 0.036 µM
- EC50 (RPMI8226): 0.076 µM
- EC50 (SKOV3): > 30 µM
- EC50 (SNU1197): > 30 µM
- EC50 (T47D): > 30 µM
- EC50 (TMD8): > 30 µM
- EC50 (ZR751): > 30 µM
